Data: US20080220416A1, “Compositions for Inhibiting Cell Growth and Inducing Apoptosis in Cancer Cells and Methods of Use Thereof” (THE BOARD OF TRUSTEES OF THE UNIVERSITY OF ILLINOI, priority 2004, published 2008)
Square brackets hold non-standard residues; d marks the D form. Peptide text beside a SMILES is read from it. * marks the point of attachment. Nle = CCCC[C@H](N)C(=O)O; Cbz = O=C(OCc1ccccc1)*

Key:
NOXA = assay: Western blot of pro-survival and pro-apoptotic proteins in melanoma cells; format: cell-based, human; settings: 10 μM
Procedure: To assess the effect of z-Leu-Leu-Nle-CHO on pro-apoptotic proteins, RJ002L pulmonary metastases melanoma cells were grown in RPMI supplemented with 10% FBS. Highly proliferating cells (i.e., cells that had reached approximately 30% confluency) were exposed to z-Leu-Leu-Nle-CHO by replenishing the culture media with media containing z-Leu-Leu-Nle-CHO (10 μM) (experimental group) or media without z-Leu-Leu-Nle-CHO (control group) and the cells were incubated for a specified period of time prior to harvesting the cells for further analysis.
Western blot analyses following z-Leu-Leu-Nle-CHO and control treatment of RJ002L melanoma cells were performed to determine the effect of z-Leu-Leu-Nle-CHO on pro-survival and pro-apoptotic proteins. Whole cell extracts were prepared and analyzed as described by Denning, M. F. et al., 1998, J Biol Chem 273: 29995-30002, 1998. The enriched mitochondria pellet and mitochondria-free cytosol of melanoma cells were prepared with the APO ALERT cell fraction kit (Clontech Laboratories, Inc. Palo Alto, Calif.) according to the manufacturer's instructions. For Western blot analysis, equal amounts of protein extracted from each sample (20-30 μg) were loaded into pre-cast 7% NuPAGE Tris-acetate gels or 4-12% NuPAGE Bis-tris gels (Invitrogen). Proteins were separated by SDS-PAGE and transferred to polyvinylidene difluoride membranes (Bio-Rad, Hercules, Calif.) using Invitrogen's buffering system. The indicated primary antibodies were incubated for indicated period of time, washed, and visualized by incubation with horseradish peroxidase-conjugated secondary antibodies and chemiluminescent reagents (Roche Diagnostics Corporation, Indianapolis, Ind.). Antibodies used were as follows: From Santa Cruz Biotechnology: Bcl-2 (SC-7382), BCl-xL (SC-634), Mcl-1 (SC-819), survivin (SC-10811), Bax (SC-493), Bak (SC-832), Bim (SC-11425), PUMA (SC-19187), p53 (SC-126), and GADD45 (SC-796); From Cell Signaling: Bid (#2002), and cleaved caspase 9 (9501); NOXA (OP180—Oncogene Research Products), Apaf-1 (559683-BD Bioscience), Smac/Diablo (IMG-248-Imgenex), cytochrome C (part of kit—Apo Alert™ cell fraction kit—Clontech Laboratories, Inc.—Palo Alto, Calif.), PARP (Pharmingen, San Diego, Calif.) and β-actin (Sigma Chemical Co., St. Louis, Mo.). Secondary antibodies anti-goat, anti-mouse, anti-rabbit and anti-rat (IgG-HRP) were purchased from Vector Laboratories (Burlingame, Calif.), Santa Cruz Biotechnology and Amersham Biosciences.
To determine if p53 status influences induction of NOXA, NOXA induction in z-Leu-Leu-Nle-CHO-treated melanoma cell lines (10 μM) containing p53 mutations (i.e. C8161, SK-MeI-28, MUM2B) were examined using Western blot analysis as described above and compared to that of Western blot results from z-Leu-Leu-Nle-CHO-treated melanoma cell lines (10 μM) having wild-type p53 (RJ002L, SK-MeI-100). […] In contrast, C8161, which carries a R196Stop mutation in only one allele, has p53 expression similar to that observed in wild-type cell lines. […] NOXA induction occurred earlier in SK-MeI-100 cells than in the other tested cell lines (FIG. 2C). Apaf-1 levels were not increased in response to z-Leu-Leu-Nle-CHO (data not shown).

[1] = test system: C8161 melanoma tumor xenograft; assay: C8161 melanoma tumor xenograft in Nude mice, z-Leu-Leu-Nle-CHO injections; format: in vivo
Procedure: Assessment of tumor formation in Nude mice was performed by adapting the method described in Hendrix, M. J. et al., 1997, Am J Pathol 150:483-495. Tumors were established in Nude mice as follows. Briefly, 1×10^6 aggressive melanoma cells (C8161) (ATCC, Rockville, Md.) were injected subcutaneously in Nude mice on day 0, and the tumors were allowed to grow for 1 week. Beginning on day 8, mice received injections (100 μl) of DMSO carrier only (control group) or z-Leu-Leu-Nle-CHO (1 mM in DMSO) (Calbiochem, LaJolla, Calif.) (experimental group) every other day for 1 week. Tumor sizes (mm^2) were determined on day 7 prior to injections with or z-Leu-Leu-Nle-CHO or DMSO, and on day 14. Average tumor size for both groups was normalized, and size of tumors at 2 weeks was averaged. Detection of apoptosis in tissue sections was performed using TUNEL staining as described in Wrone-Smith et al, 1997, Am J Pathol. 151:1321-9.

[2] = test system: MDA-MB231 breast cancer cells; assay: Extracellular matrix invasion of MDA-MB231 cells (Matrigel Invasion Chambers); format: cell-based, human; settings: siRNA transfection, 22 hours
Procedure: Cytotoxicity and growth of transfected cells were estimated by a standard assay used for cancer drug screening, through the total amount of TCA-precipitated cell proteins after drug treatment (Likhitwitayawuid, K et al., 1993, J Nat Prod 56:30-38): 200 μl of cell suspension (10^5 cells/ml) were added to each well in a 96-well plate. After incubation at, 37° C., in 5% CO2 (30 minutes to 72 hours depending on the time course chosen), 50 μl 50% trichloroacetic acid was added to each well. After incubation at 4° C. for 1 hour, precipitates were washed with water 4-5 times and air dried overnight. One hundred μl of SRB solution (0.4% sulforhodamine B in 1% acetic acid, filtered before use) was added to each well for 30 minutes. Wells were washed with 1% acetic acid 4-5 times and air dried. Two hundred μl 10 mM Tris base was added to each well. Plates were shaken for 5-10 minutes and OD at 490 nm (OD490) was recorded via ELISA reader. To assay matrix invasion, 300 μl of cell suspension (10^6 cells/mL in serum-free medium) were added to invasion inserts (BioCoat Matrigel Invasion Chambers, Becton Dickinson, Bedford, Mass.) and incubated for 22 hours at 37° C., 5% CO2. Cells were stained with 0.9% crystal violet in 10% ethanol for 20 minutes. Inserts were dipped in water several times and air dried. After removal of the non-invading cells from the interior of the inserts, stained invading cells were lysed in 10% acetic acid and OD595 was determined.
Notch silencing was confirmed by Western blot as described above in Example 15 using commercial goat polyclonal antibodies from Santa Cruz Biotechnology to Notch-1 (C-20, Cat# sc-6014 S). For the Western blot analyses, MDA-MB231 cells were treated with 25 μM IL-X for 48 h or with 0.5, 1 or 2 μM z-Leu-Leu-Nle-CHO for 24 h. Cytotoxicity and matrix invasion assays were performed as described above in Example 15. For the cytotoxicity assays, MDA-MB231 cells were treated with […] IL-X for up to 3 days or with 0-20 μM z-Leu-Leu-Nle-CHO for up to 4 days. […]

CCCC[C@@H](C=O)NC(=O)[C@H](CC(C)C)NC(=O)[C@H](CC(C)C)NC(=O)OCc1ccccc1 [z-Leu-Leu-Nle-CHO, N-benzyloxycarbonyl-leucyl-leucyl-norleucinal] (Cbz-Leu-Leu-[Nle]-aldehyde)
induction of pro-apoptotic proteins (NOXA; RJ002L): induced expression of Bak, Bim, and NOXA
time course of NOXA induction (NOXA; RJ002L): detectable as early as 1 hr and was massive by 6-18 hrs
NOXA induction (NOXA; all tested melanoma cell lines, regardless of p53 mutation status): induced NOXA in all tested melanoma cell lines
average tumor size ([1]; 1 mM in DMSO, 100 μl every other day for 1 week, compared to DMSO, p=0.046, n=11): significantly reduced tumor size
apoptosis in tumor by immunofluorescent TUNEL assay ([1]; 1 week of treatment, 1 mM, versus DMSO carrier): High levels of apoptosis

5′-AAGTGTCTGAGGCCAGCAAGA-3′ [Notch-1 siRNA]
extracellular matrix invasion [2]: significantly inhibited extracellular matrix invasion
